Reference: PMC12298876, “Angiotensin-Converting Enzyme Inhibitory Activity of Selected Phenolic Acids, Flavonoids, Their O-Glucosides, and Low-Molecular-Weight Phenolic Metabolites in Relation to Their Oxidation Potentials” (Metabolites, 2025)
Values joined by “and” are separate entries in the source; they are usually repeats but may differ in a detail not shown here. Equal values may be shown once. Read-outs that look alike come from different tables or passages of the source. Marks after values point to notes of the source that are not given here.

Experiments:
[1] = First anodic oxidation potential by differential pulse voltammetry (DPV); assay type: physicochemical; settings: for Anodic Peak Potential Epa: DPV, first anodic peak, 0.25 mM standard in 0.1 M Britton-Robinson buffer pH 6.0 in 80% methanol, glassy carbon vs Ag/AgCl, 100 mV/s; for antioxidant power class based on the first oxidation potential: classes according to Blasco et al. [47]
Protocol: A potentiostat/galvanostat G 750 (Gamry Instruments, Warminster, USA) was used for voltametric experiments. A conventional three-electrode system: a 3 mm diameter glassy carbon working electrode (BAS MF-2012), an Ag/AgCl electrode as a reference electrode, and a platinum as counter electrode, was used in the study. Differential pulse voltametric experiments were performed with phenolic acids and flavonoids prepared in a 1:1 (v/v) mixture of 500 µM standard solution and […] Britton-Robinson (B-R) buffer (pH 6.0 in 80% methanol), which also served as a supporting electrolyte. The voltametric experiments were performed at room temperature using an electrochemical cell (volume 200 µL), to which the analyzed standard solution, mixed previously with the buffer solution, was introduced. The differential pulse voltammograms were acquired in the range of −100 to 1300 mV at a scanning rate of 100 mV/s. Before use, the surface of the glassy carbon electrode was carefully polished with 0.05 µm alumina paste, ultrasonically rinsed in deionized water, and then washed with methanol. This procedure was repeated after each cycle. For test purposes, the first anodic oxidation potential was recorded (mV).

[2] = biological target: T1, Angiotensin-converting enzymes (ACE) from porcine kidneys (EC 3.4.15.1) (Sus scrofa, UniProt F1RRW5); experiment: biochemical; settings: for ACE inhibitory activity lower than that of reduced glutathione (GSH): ratio to the IC50 of GSH; for lower IC50 in relation to the respective aglycone: glycoside vs aglycon
T1 construct: Angiotensin-converting enzymes (ACE) from porcine kidneys (EC 3.4.15.1) were purchased from Sigma-Aldrich; purchased Sigma-Aldrich (St. Louis, MO, USA); host or cells: porcine kidneys (tissue-derived enzyme)
T1 sequence (F1RRW5 34-1309): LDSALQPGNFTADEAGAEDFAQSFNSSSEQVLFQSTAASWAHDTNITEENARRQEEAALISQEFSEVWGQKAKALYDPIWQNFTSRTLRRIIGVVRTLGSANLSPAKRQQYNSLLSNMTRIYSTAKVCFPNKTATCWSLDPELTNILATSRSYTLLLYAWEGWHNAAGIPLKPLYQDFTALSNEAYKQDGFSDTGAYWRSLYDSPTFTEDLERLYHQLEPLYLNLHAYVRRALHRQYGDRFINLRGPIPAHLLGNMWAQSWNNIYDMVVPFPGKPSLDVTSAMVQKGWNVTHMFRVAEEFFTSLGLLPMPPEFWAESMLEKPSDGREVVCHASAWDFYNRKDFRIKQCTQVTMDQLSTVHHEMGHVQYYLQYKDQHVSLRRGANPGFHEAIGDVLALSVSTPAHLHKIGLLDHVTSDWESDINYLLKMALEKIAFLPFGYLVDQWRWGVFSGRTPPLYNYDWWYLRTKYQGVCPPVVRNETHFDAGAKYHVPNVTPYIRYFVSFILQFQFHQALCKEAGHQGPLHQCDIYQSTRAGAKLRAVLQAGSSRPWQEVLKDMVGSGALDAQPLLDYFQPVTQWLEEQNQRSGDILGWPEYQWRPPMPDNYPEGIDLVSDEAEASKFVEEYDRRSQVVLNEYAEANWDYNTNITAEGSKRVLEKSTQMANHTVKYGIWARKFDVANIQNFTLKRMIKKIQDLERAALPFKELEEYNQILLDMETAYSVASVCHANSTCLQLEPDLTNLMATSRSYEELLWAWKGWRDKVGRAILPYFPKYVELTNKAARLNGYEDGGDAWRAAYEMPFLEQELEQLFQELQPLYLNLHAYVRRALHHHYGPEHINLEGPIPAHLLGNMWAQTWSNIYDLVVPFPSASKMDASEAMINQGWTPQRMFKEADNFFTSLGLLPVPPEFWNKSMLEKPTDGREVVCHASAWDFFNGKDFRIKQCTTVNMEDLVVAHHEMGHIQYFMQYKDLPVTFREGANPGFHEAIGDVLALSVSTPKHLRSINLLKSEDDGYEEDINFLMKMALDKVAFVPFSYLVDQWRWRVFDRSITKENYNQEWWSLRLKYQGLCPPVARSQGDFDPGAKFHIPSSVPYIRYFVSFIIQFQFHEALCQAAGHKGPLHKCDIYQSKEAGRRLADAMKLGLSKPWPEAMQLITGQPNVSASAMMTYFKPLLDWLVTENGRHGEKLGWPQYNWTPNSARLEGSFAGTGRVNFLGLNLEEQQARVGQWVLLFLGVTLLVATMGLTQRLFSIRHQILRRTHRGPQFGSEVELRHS
Protocol: Angiotensin-converting enzymes (ACE) from porcine kidneys (EC 3.4.15.1) were purchased from Sigma-Aldrich (St. Louis, MO, USA). A three-tris-base buffer was as follows: buffer A: 300 mM Tris-base buffer (pH 8.3) with 2 mM ZnCl2; buffer B: 150 mM Tris-base buffer (pH 8,3); and buffer C: 150 mM Tris-base buffer (pH 8.3) with […] NaCl. The substrate o-aminobenzoylglycyl-p-nitorphenylalanylproline (Abz-Gly-Phe(NO2)-Pro) was obtained from BACHEM (Bubendorf, Switzerland). Standards of phenolic acids, flavonoids, glucosides, and low-molecular-weight phenolic metabolites were obtained from Sigma-Aldrich (St. Louis, MO, USA) and Extrasynthese (Genay, France). Water was purified using the Mili-Q system (Milipore, Bedford, MA, USA).
Stock solutions at 1 mM of selected phenolic acids, flavonoids, their O-glucosides, and low-molecular-weight phenolic metabolites were prepared in 80% methanol. The concentration was confirmed by a UV measurement according to Franke et al.. A wide range of concentrations of each compound was prepared by serial dilutions in deionized water to determine the IC50 value. […] The ACE inhibitory activity was obtained from three repetitions (n = 3) for each concentration.
Angiotensin-converting enzyme (ACE) activity inhibitory assay was performed according to the method of Sentandreu and Toldra. The procedure was based on the hydrolysis of the internally quenched substrate o-aminobenzoylglycyl-p-nitorphenylalanylproline (Abz-Gly-Phe(NO2)-Pro) by the reaction of ACE. The fluorescence generated by the liberation of the product (the o-aminobenzoylglycine group) was read in a microplate multiscan fluorometer. The production of fluorescence was inhibited by the presence of functional compounds with an ACE inhibitory effect. The fluorescence was measured immediately after mixing (0 min) and then after 30 min of reaction at an excitation of 365 nm and an emission of 405 nm. To calculate the % of inhibition of ACE, the following equation was used:Relative ACE activity% = 100 − (ΔRFUsample × 100/ΔRFUnegative control), where ΔRFU = RFU at time 30 – RFU at time 0.

[3] = low-molecular-weight phenolic metabolites
[4] = porcine kidney ACE, substrate Abz-Gly-Phe(NO2)-Pro, fluorescence after 30 min, mean ± SD, read-out: IC50 Value (ACE inhibitory activity)

Structure (SMILES) | Anodic Peak Potential Epa [1] | antioxidant power class based on the first oxidation potential [1, 3] | IC50 [2, 4] | also measured
O=C(O)CCc1ccccc1O [2-HPPA, 3-(2-hydroxyphenyl)propionic acid] | 781 ± 9 ^d mV | moderate antioxidant power (moderate antioxidant power (0.3 V < Epa < 0.8 V)) | 0.9329 ± 0.00642 mM | –
O=C(O)CCc1ccc(O)c(O)c1 [3,4-DHPPA, 3-(3,4-dihydroxyphenyl)propionic acid] | 218 ± 3 ^h mV | – | 0.612 ± 0.00651 mM | –
O=C(O)CCc1ccc(O)cc1O [3-2,4-DHPPA, 3-(2,4-dihydroxyphenyl)propionic acid] | 659 ± 8 ^e mV | moderate antioxidant power (moderate antioxidant power (0.3 V < Epa < 0.8 V)) | 0.745 ± 0.00833 mM | –
O=C(O)Cc1cccc(O)c1 [3-HPAA, 3-hydroxyphenylacetic acid] | 883 ± 11 ^b mV | weak antioxidant power (weak antioxidant power (Epa ˃ 0.8 V)) | 0.679 ± 0.0077 mM | –
O=C(O)c1ccc(O)cc1 [4-HBA, 4-hydroxybenzoic acid] | 961 ± 11 ^a mV | – | 0.788 ± 0.0111 mM | –
O=C(O)Cc1ccc(O)cc1 [4-HPAA, 4-hydroxyphenylacetic acid] | 815 ± 12 ^c mV | weak antioxidant power (weak antioxidant power (Epa ˃ 0.8 V)) | 1.391 ± 0.0102 mM | –
O=C(O)CCc1ccc(O)cc1 [4-HPPA, 3-(4-hydroxyphenyl)propionic acid] | 664 ± 8 ^e mV | moderate antioxidant power (moderate antioxidant power (0.3 V < Epa < 0.8 V)) | 0.49 mM and 0.491 mM | ACE inhibitory activity lower than that of reduced glutathione (GSH) [2]: ~12 fold
O=c1cc(-c2ccc(O)cc2)oc2cc(OC3O[C@H](CO)[C@@H](O)[C@H](O)[C@H]3O)cc(O)c12 (some centres unmarked) [Apigenin-7-O-glucoside] | 841 ± 6 ^ab mV | – | 0.218 ± 0.00253 mM | lower IC50 in relation to the respective aglycone ([2]; ACE inhibition): 35%
O=C(/C=C/c1ccc(O)c(O)c1)O[C@@H]1C[C@](O)(C(=O)O)C[C@@H](O)[C@H]1O [Chlorogenic acid] | 443 ± 9 ^d mV | – | 0.134 mM | ACE inhibitory activity lower than that of reduced glutathione (GSH) [2]: threefold
OCC1OC(Oc2cc3c(O)cc(O)cc3[o+]c2-c2ccc(O)c(O)c2)C(O)C(O)C1O (centres unmarked) [Cyanidin-3-O-glucoside] | 373 ± 4 ^g mV | – | 0.185 ± 0.00258 mM | higher value of IC50 as compared to the IC50 of the respective aglycon ([2]; ACE inhibition, glucoside vs aglycon): 5%
Oc1cc(O)c2cc(O)c(-c3ccc(O)c(O)c3)[o+]c2c1 [Cyanidin] | 295 ± 3 ^h mV | – | 0.176 ± 0.00238 mM | antioxidant power class based on the first oxidation potential ([1]; flavonoids and glucosides): high antioxidant power (high antioxidant power (Ep < 0.3 V))
OCC1OC(Oc2cc3c(O)cc(O)cc3[o+]c2-c2cc(O)c(O)c(O)c2)C(O)C(O)C1O (centres unmarked) [Delphinidin-3-O-glucoside] | 453 ± 4 ^e mV | – | 0.2088 ± 0.00133 mM | lower IC50 in relation to the respective aglycone ([2]; ACE inhibition): 16%
Oc1cc(O)c2cc(O)c(-c3cc(O)c(O)c(O)c3)[o+]c2c1 [Delphinidin] | 259 ± 3 ^i mV | – | – | IC50 ([2]; IC50 Value (ACE inhibitory activity), porcine kidney ACE, substrate Abz-Gly-Phe(NO2)-Pro, fluorescence after 30 min, mean ± SD): 0.2477 ± 0.00185 mM
COc1cc(/C=C/C(=O)O)ccc1O [Ferulic acid] | 611 ± 6 ^c mV | – | 0.98 ± 0.0136 mM | IC50 ([2]; values of this study restated in mM in the discussion, read-out: IC50 (ACE inhibition)): 0.98 mM
N[C@@H](CCC(=O)N[C@@H](CS)C(=O)NCC(=O)O)C(=O)O [GSH, reduced glutathione, reference compound] | – | – | 0.0417 mM | –
